Results on eight compounds are retold here after ChEMBL document CHEMBL1201862, “PubChem BioAssay data set” (2004).

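A five-concentration, 48-hour dose response in 96-well plates underlies each endpoint, interpolated linearly between surrounding concentrations. GI50 = concentration required for 50% inhibition of growth.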 The source made the active and inactive calls. Cut-off read from the data, not from the text of the source: active = GI50 up to about 1.1 µM and inactive = higher. Where only a bound is given, the exact number is not on record here.

Some test systems named below: A549; CAKI-1; CCRF-CEM; DMS-114; DMS-273; HCT-15; KM-20L2; LOX IMVI; NCI-H226; OVCAR-4; OVCAR-5; OVCAR-8; RPMI-8226; SNB-75; SW-620; UO-31; MDA-MB-231; T47D; MCF7; NCI/ADR-RES.
Assay in all cases: NCI anticancer screen, dose series, 48 h

`OC(Cn1cncn1)(Cn1cncn1)c1ccc(Cl)cc1Cl`: the GI50 is > 100 µM (inactive) in the experiment on A549; > 100 µM (inactive) in the experiment with CAKI-1; > 100 µM (inactive) in the experiment on CCRF-CEM; > 100 µM (inactive) with DMS-114; > 100 µM (inactive) in the experiment with DMS-273; more than 100 µM in the experiment on HCT-15. For the same compound, the GI50 with KM-20L2, in the experiment on LOX IMVI, in the experiment on NCI-H226, with OVCAR-4, in the experiment on OVCAR-5 and in the experiment with OVCAR-8 was > 100 µM (inactive) throughout. Moreover, the GI50 in the experiment on RPMI-8226, with SNB-75, in the experiment on SW-620 and in the experiment on UO-31 was > 100 µM (inactive) in each case.
As for `COCC(=O)[C@]1(O)Cc2c(O)c3c(c(O)c2[C@@H](OC2CC(N)C(O)C(C)O2)C1)C(=O)c1c(OC)cccc1C3=O` (stereo partly specified), the GI50 in the experiment on A549 is 0.219 µM (active); in the experiment on CAKI-1, 0.0628 µM (active); with CCRF-CEM, 0.0153 µM (active); with DMS-114 it was 0.0718 µM (active); with DMS-273, 0.0391 µM (active); in the experiment with HCT-15, 0.137 µM. Besides, the GI50 was 0.111 µM (active) in the experiment on KM-20L2; 0.0191 µM (active) in the experiment with LOX IMVI; 0.296 µM (active) with MDA-MB-231; 0.0401 µM (active) in the experiment on NCI-H226; 0.0826 µM (active) in the experiment on OVCAR-4; 0.22 µM (active) in the experiment on OVCAR-5. The GI50 in the experiment with OVCAR-8 was < 0.0172 µM (active); with RPMI-8226, 0.08 µM (active); in the experiment on SNB-75, 0.0343 µM (active); in the experiment on SW-620, 0.0209 µM (active); in the experiment with T47D, 0.106 µM (active); in the experiment with UO-31, 0.0883 µM (active).
`CCOC(=O)C1=C(Nc2ccc(Cl)c(Cl)c2)OC/C1=N\NC(=O)Cc1ccccc1`: the GI50 in the experiment on A549, in the experiment on CAKI-1, in the experiment on CCRF-CEM, in the experiment on DMS-114, in the experiment on DMS-273 and in the experiment on KM-20L2 was > 100 µM (inactive) each time. Further, the GI50 is > 100 µM (inactive) in the experiment on LOX IMVI; > 100 µM (inactive) in the experiment on NCI-H226; > 100 µM (inactive) in the experiment with OVCAR-4; > 100 µM (inactive) with OVCAR-5; > 100 µM (inactive) in the experiment on OVCAR-8; 68.7 µM (inactive) with RPMI-8226. In addition, the GI50 is > 100 µM (inactive) in the experiment with SNB-75, > 100 µM (inactive) in the experiment on SW-620 and 56.2 µM (inactive) in the experiment on UO-31.
`COc1ccc(C2C(Cl)C(=O)N2NC(=O)Cc2ccccc2)cc1OC` (stereo unspecified): the GI50 with A549 was > 100 µM (inactive); in the experiment with CAKI-1 it was > 100 µM (inactive); with CCRF-CEM it was > 100 µM (inactive); with DMS-114, > 100 µM (inactive); with DMS-273 it was > 100 µM (inactive); with HCT-15, more than 100 µM. Besides, the GI50 in the experiment with KM-20L2, in the experiment on LOX IMVI, in the experiment with NCI-H226, with OVCAR-4, in the experiment on OVCAR-5 and in the experiment with OVCAR-8 was > 100 µM (inactive) in each case. Also, the GI50 in the experiment on RPMI-8226, in the experiment on SNB-75, in the experiment with SW-620 and with UO-31 was > 100 µM (inactive) each time.
Regarding `CN1CCCC2(CCCc3ccccc32)C1` (stereo unspecified), the GI50 is > 100 µM (inactive) in the experiment on A549; > 100 µM (inactive) in the experiment on CAKI-1; > 100 µM (inactive) in the experiment on CCRF-CEM; > 100 µM (inactive) in the experiment with DMS-114; > 100 µM (inactive) with DMS-273; more than 100 µM in the experiment with HCT-15. For the same compound, the GI50 in the experiment on KM-20L2, with LOX IMVI, with NCI-H226, with OVCAR-4, in the experiment on OVCAR-5 and in the experiment on OVCAR-8 was > 100 µM (inactive) throughout. In addition, the GI50 in the experiment on RPMI-8226 was > 100 µM (inactive); in the experiment with SNB-75 it was > 100 µM (inactive); with SW-620, > 100 µM (inactive); with UO-31, 80.2 µM (inactive).
In the case of `COc1cc2c3c(c1OC)Oc1ccc(cc1)CC1c4c(cc(OC)c(OC)c4Oc4ccc(cc4)CC3N(C)CC2)CCN1C` (stereo unspecified), the GI50 in the experiment on A549 was 26.2 µM (inactive); with CAKI-1, 90.6 µM (inactive); in the experiment with CCRF-CEM it was 18.5 µM (inactive); in the experiment with DMS-114, 19.8 µM (inactive); in the experiment on DMS-273, 15.3 µM (inactive); in the experiment with KM-20L2, 19.8 µM (inactive). Also, the GI50 was 17.7 µM (inactive) with LOX IMVI; 15.6 µM (inactive) in the experiment with NCI-H226; 13.3 µM (inactive) with OVCAR-4; 56.6 µM (inactive) with OVCAR-5; 20.2 µM (inactive) with OVCAR-8; 25.6 µM (inactive) with RPMI-8226. Moreover, the GI50 was 21.8 µM (inactive) with SNB-75, 15.1 µM (inactive) with SW-620 and 15 µM (inactive) with UO-31.
As to `CC(=O)Nc1ccc(/C=C/c2ccc(NC(=O)Nc3ccc(/C=C/c4ccc(NC(C)=O)cc4S(=O)(=O)O)c(S(=O)(=O)O)c3)cc2S(=O)(=O)O)c(S(=O)(=O)O)c1`, the GI50 with A549 is > 100 µM (inactive); in the experiment on CCRF-CEM, > 100 µM (inactive); with DMS-114 it was 60.5 µM (inactive); in the experiment on DMS-273 it was > 87.9 µM (inactive); in the experiment on HCT-15, 45.8 µM; in the experiment on KM-20L2, 77.8 µM (inactive). Moreover, the GI50 in the experiment on LOX IMVI was > 94.2 µM (inactive); in the experiment on MCF7, > 100 µM (inactive); in the experiment with NCI-H226 it was 39.8 µM (inactive); with NCI/ADR-RES, > 100 µM (inactive); in the experiment with OVCAR-4, > 100 µM (inactive); in the experiment on OVCAR-5, > 100 µM (inactive). Further, the GI50 with OVCAR-8 was > 100 µM (inactive); in the experiment on RPMI-8226, > 100 µM (inactive); in the experiment on SNB-75, 53.8 µM (inactive); in the experiment on SW-620, > 100 µM (inactive); in the experiment on UO-31 it was > 100 µM (inactive).
Regarding `CC[C@@]1(O)C[C@H](OC2CC(N(C)C)C(OC3CC(O)C(OC4CC(O)C(O)C(C)O4)C(C)O3)C(C)O2)c2c(cc3c(c2O)C(=O)c2c(O)ccc(O)c2C3=O)[C@H]1C(=O)OC` (stereo partly specified), the GI50 was 0.0105 µM (active) with A549; 0.0082 µM (active) in the experiment on CAKI-1; < 0.0181 µM (active) in the experiment with CCRF-CEM; 0.0853 µM (active) in the experiment with DMS-114; 0.0108 µM (active) with DMS-273; 0.151 µM with HCT-15. In addition, the GI50 with KM-20L2 is 0.108 µM (active); in the experiment on LOX IMVI, 0.163 µM (active); in the experiment on MCF7, 0.0156 µM (active); in the experiment with NCI-H226, 0.0427 µM (active); in the experiment with NCI/ADR-RES it was 0.625 µM (active); with OVCAR-4, 0.0371 µM (active). Besides, the GI50 in the experiment on OVCAR-5 is 0.254 µM (active); in the experiment with OVCAR-8, 0.00474 µM (active); in the experiment with RPMI-8226 it was 0.011 µM (active); in the experiment on SNB-75 it was 0.0548 µM (active); in the experiment on SW-620, 0.00875 µM (active); in the experiment with UO-31, 0.112 µM (active).
